Experimental data from patent publication US9084817B2, “Oral preparation comprising specific organic acid, and method for improvement in elution property and chemical stability of oral preparation” (TORAY INDUSTRIES, INC., priority 2007, dated 2015).

Experiment: Water required to dissolve 1 g of organic acid at 20° C. (Japanese Pharmacopoeia solubility)
Type: physicochemical
Protocol: The organic acid 1 g of which requires not less than 30 mL of water to dissolve in at 20° C. refers to such an organic acid that 30 mL or more of water is required to dissolve 1 g of the organic acid within 30 minutes at 20±5° C. by vigorous shaking for 30 seconds each time at 5-minute intervals, in accordance with the description about solubility in the Japanese Pharmacopoeia, 15th Edition, General Notices, page A-13.

Q: Which “Water required to dissolve 1 g of organic acid in at 20° C.” value does the source give for `O=C(O)/C=C/C(=O)O` [Fumaric acid] here?
A: ≥ 100 mL
